One experiment relates to Sprague-Dawley rats. The experiment in a line: PD studies: blood glucose after subcutaneous dosing. It is filed as in vivo. Conditions: sc. On the procedure: The pharmacodynamic effect of the Insulin Fc conjugates of the examples were investigated in normal male Sprague-Dawley rats weighing approx. 350 g at study start.
Animals had free access to food and water during the experiment period. They were dosed subcutaneously in the neck region with a dose of 30 nmol/kg (unless otherwise stated in the figures below). Blood samples for blood glucose and plasma insulin analysis were collected from the tongue veins up to 10 days post dosing. Blood glucose was measured using Biosen S Line (EKF).

In a further experiment the test system is isolated rat adipocytes. The experiment in a line: Insulin-stimulated lipogenesis. The class given is cell-based. The note with it: 1% HSA; relative to the activity of human insulin (100%). As to the method: Insulin-stimulated lipogenesis was measured in isolated rat adipocytes in presence of 1% HSA as described in Moody A J, Stan M A, Stan M, Gliemann J. A Simple Free Fat Cell Bioassay for Insulin. Hormone And Metabolic Research. 1974; 6(1):12-6, see results in Table 6.

Another experiment deals with insulin receptor A (Homo sapiens, UniProt P06213). The experiment in a line: Insulin receptor affinity. The class given is binding. The note with it: relative to affinity of human insulin for insulin receptor A (100%).
Chain of insulin receptor A (P06213 28-1370 isoform P06213-2 limits assumed): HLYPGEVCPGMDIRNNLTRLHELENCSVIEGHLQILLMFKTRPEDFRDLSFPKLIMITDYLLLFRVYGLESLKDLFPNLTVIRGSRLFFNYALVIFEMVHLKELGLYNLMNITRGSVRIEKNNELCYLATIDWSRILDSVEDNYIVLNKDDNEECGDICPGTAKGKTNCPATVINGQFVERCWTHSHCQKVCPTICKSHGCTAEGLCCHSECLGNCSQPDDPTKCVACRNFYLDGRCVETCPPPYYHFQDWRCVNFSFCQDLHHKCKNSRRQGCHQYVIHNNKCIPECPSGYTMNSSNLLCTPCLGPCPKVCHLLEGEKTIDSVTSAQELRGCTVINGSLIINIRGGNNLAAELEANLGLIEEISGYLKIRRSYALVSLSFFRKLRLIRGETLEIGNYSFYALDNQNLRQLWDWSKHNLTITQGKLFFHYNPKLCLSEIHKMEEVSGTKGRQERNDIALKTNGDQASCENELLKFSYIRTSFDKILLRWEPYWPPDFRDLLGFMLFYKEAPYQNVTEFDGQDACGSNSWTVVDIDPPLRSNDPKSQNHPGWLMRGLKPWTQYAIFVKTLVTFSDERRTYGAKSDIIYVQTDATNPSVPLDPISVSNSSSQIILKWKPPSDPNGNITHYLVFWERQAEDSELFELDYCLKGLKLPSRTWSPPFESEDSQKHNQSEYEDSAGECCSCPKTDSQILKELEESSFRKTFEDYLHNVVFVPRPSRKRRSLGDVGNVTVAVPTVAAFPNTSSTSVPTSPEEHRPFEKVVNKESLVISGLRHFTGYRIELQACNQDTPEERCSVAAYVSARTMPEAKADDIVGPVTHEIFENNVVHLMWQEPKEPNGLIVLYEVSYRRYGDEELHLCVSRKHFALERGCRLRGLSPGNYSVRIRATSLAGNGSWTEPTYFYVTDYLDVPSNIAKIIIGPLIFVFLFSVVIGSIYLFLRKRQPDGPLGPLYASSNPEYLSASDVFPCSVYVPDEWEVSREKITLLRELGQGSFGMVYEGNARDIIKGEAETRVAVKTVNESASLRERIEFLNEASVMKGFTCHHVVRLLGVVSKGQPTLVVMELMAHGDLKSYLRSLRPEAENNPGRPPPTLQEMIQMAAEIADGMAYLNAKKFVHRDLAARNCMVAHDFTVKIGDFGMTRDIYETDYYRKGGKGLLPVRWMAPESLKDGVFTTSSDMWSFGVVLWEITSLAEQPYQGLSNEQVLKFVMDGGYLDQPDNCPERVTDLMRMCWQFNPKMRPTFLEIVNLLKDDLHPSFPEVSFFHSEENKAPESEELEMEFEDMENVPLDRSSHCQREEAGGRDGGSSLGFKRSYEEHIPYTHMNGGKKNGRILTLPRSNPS
Chain of insulin receptor A (P06213 763-1382 partner limits assumed): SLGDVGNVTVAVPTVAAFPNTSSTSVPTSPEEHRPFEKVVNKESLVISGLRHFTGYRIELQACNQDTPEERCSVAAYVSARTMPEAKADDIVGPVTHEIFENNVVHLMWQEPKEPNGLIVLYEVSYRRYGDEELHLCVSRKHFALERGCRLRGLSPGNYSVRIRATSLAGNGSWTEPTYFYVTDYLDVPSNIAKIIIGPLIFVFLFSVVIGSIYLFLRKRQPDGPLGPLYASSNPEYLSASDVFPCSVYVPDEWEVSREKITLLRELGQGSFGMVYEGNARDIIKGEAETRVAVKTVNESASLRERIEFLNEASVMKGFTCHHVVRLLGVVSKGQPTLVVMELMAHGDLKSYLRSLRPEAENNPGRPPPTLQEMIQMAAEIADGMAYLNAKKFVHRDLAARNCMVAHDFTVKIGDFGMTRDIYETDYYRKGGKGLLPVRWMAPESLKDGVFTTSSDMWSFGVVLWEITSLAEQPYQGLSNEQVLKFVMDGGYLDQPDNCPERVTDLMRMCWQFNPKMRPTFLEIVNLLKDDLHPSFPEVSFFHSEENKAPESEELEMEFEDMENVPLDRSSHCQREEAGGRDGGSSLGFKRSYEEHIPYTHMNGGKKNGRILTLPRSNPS
Setting [1] is: dose 30 nmol/kg, time 0.041667 days.
[2] abbreviates: dose 30 nmol/kg, time 0.125 days.
Where [3] appears, read: dose 30 nmol/kg, time 0.291667 days.
The mark [4] stands for this setting: dose 30 nmol/kg, time 0.208333 days.

Regarding “(A14A, A21G, A22(GQAP)18, A94G, A95Q, A96A, A97K^, A98P, B29R, desB30 human insulin)/(227A, 234A, 235K, 297E, 315Q, 384Q, des447 hIgG4-Fc(228-447))4-[bis[2-[(2-acetyl)amino]ethyl]amino]-4-oxo-butanoyl Conjugate [Example 5.25]”, the Average blood glucose with Sprague-Dawley rats (dose 30 nmol/kg, time 0 days) is listed as 5.724 mM; in the experiment on Sprague-Dawley rats (setting [1]), 6.104 mM; with Sprague-Dawley rats (setting [2]), 4.9 mM; with Sprague-Dawley rats (setting [3]), 4.032 mM; in the experiment on Sprague-Dawley rats (dose 30 nmol/kg, time 1 day), 3.28 mM; in the experiment on Sprague-Dawley rats (dose 30 nmol/kg, time 2 days), 3.864 mM. Further, the Average blood glucose with Sprague-Dawley rats (dose 30 nmol/kg, time 3 days) is listed as 6.224 mM; with Sprague-Dawley rats (dose 30 nmol/kg, time 4 days), 5.976 mM; with Sprague-Dawley rats (dose 30 nmol/kg, time 5 days) it was 6.036 mM; in the experiment on Sprague-Dawley rats (dose 30 nmol/kg, time 6 days), 6.496 mM; in the experiment on Sprague-Dawley rats (dose 30 nmol/kg, time 7 days), 6.14 mM; with Sprague-Dawley rats (dose 30 nmol/kg, time 8 days), 6.452 mM. The Average blood glucose in the experiment on Sprague-Dawley rats (dose 30 nmol/kg, time 9 days) was 6.528 mM; with Sprague-Dawley rats (dose 30 nmol/kg, time 10 days) it was 6.144 mM. Further, the “Lipogenesis in rat adipocytes [Potency (%)] Mean Value” in the experiment on isolated rat adipocytes is 2.08%. Besides, the “Insulin receptor affinity [IC50 relative to HI (%)] Mean Value” at insulin receptor A stood at 4.49%.

In the case of “A14E, A21G, A22(GQEP)19, A98K^, A99P, B3Q, B25H, B29R, desB30 human insulin/(227A, 234A, 235K, 297E, 315Q, 384Q, des447 hIgG4-Fc(228-447))4-[bis[2-[(2-acetyl)amino]ethyl]amino]-4-oxo-butanoyl Conjugate [Example 5.2]”, the Average blood glucose stood at 6.608 mM in the experiment with Sprague-Dawley rats (dose 30 nmol/kg, time 0 days); 6.196 mM with Sprague-Dawley rats (setting [1]); 5.328 mM in the experiment on Sprague-Dawley rats (setting [2]); 4.48 mM in the experiment with Sprague-Dawley rats (setting [3]); 2.7 mM with Sprague-Dawley rats (dose 30 nmol/kg, time 1 day); 2.66 mM with Sprague-Dawley rats (dose 30 nmol/kg, time 2 days). The Average blood glucose in the experiment with Sprague-Dawley rats (dose 30 nmol/kg, time 3 days) worked out at 3.08 mM; in the experiment with Sprague-Dawley rats (dose 30 nmol/kg, time 4 days), 5.156 mM; with Sprague-Dawley rats (dose 30 nmol/kg, time 6 days) it was 6.232 mM; in the experiment on Sprague-Dawley rats (dose 30 nmol/kg, time 7 days) it was 6.092 mM; in the experiment with Sprague-Dawley rats (dose 30 nmol/kg, time 8 days), 5.972 mM. Also, in the experiment with isolated rat adipocytes, the “Lipogenesis in rat adipocytes [Potency (%)] Mean Value” is given as 3.57%. Also, the “Insulin receptor affinity [IC50 relative to HI (%)] Mean Value” on insulin receptor A is listed as 6.10%.

With “A14E, A21G, A22(GQAPGQAPGQEP)6-GQAP, A98K^, A99P, B3Q, B25H, B29R, desB30 human insulin/(227A, 234A, 235K, 297E, 315Q, 3840, des447 hIgG4-Fc(228-447))4-[bis[2-[(2-acetyl)amino]ethyl]amino]-4-oxo-butanoyl Conjugate [Example 5.13]”, the Average blood glucose came to 6.384 mM in the experiment with Sprague-Dawley rats (dose 30 nmol/kg, time 0 days); 5.976 mM in the experiment with Sprague-Dawley rats (setting [1]); 4.892 mM in the experiment on Sprague-Dawley rats (setting [2]); 4.184 mM in the experiment on Sprague-Dawley rats (setting [3]); 2.428 mM in the experiment on Sprague-Dawley rats (dose 30 nmol/kg, time 1 day); 2.452 mM with Sprague-Dawley rats (dose 30 nmol/kg, time 2 days). The Average blood glucose turned out to be 3.308 mM with Sprague-Dawley rats (dose 30 nmol/kg, time 3 days); 5.676 mM in the experiment on Sprague-Dawley rats (dose 30 nmol/kg, time 4 days); 5.908 mM with Sprague-Dawley rats (dose 30 nmol/kg, time 6 days); 5.812 mM in the experiment on Sprague-Dawley rats (dose 30 nmol/kg, time 7 days); 5.492 mM with Sprague-Dawley rats (dose 30 nmol/kg, time 8 days). Moreover, the “Lipogenesis in rat adipocytes [Potency (%)] Mean Value” in the experiment with isolated rat adipocytes is 3.07%. Also, the “Insulin receptor affinity [IC50 relative to HI (%)] Mean Value” on insulin receptor A came out at 5.55%.

On to “A14E, A21G, A22(GQAPGQAPGQEP)6-GQAP, A98K^, A99P, B3Q, B25H, B29R, desB30 human insulin/(227A, 234A, 235K hIgG4-Fc(228-447))4-[bis[2-[(2-acetyl)amino]ethyl]amino]-4-oxo-butanoyl Conjugate [Example 5.5]”, for which the Average blood glucose in the experiment on Sprague-Dawley rats (dose 30 nmol/kg, time 0 days) amounted to 5.266 mM; with Sprague-Dawley rats (setting [1]), 5.276 mM; in the experiment with Sprague-Dawley rats (setting [2]), 4.894 mM; in the experiment with Sprague-Dawley rats (setting [4]), 4.422 mM; with Sprague-Dawley rats (setting [3]), 4.358 mM; in the experiment on Sprague-Dawley rats (dose 30 nmol/kg, time 1 day), 3.106 mM. The Average blood glucose in the experiment on Sprague-Dawley rats (dose 30 nmol/kg, time 2 days) is on record as 2.33 mM; in the experiment with Sprague-Dawley rats (dose 30 nmol/kg, time 3 days) it was 2.786 mM; with Sprague-Dawley rats (dose 30 nmol/kg, time 4 days) it was 4.764 mM; with Sprague-Dawley rats (dose 30 nmol/kg, time 5 days), 5.842 mM; in the experiment on Sprague-Dawley rats (dose 30 nmol/kg, time 6 days), 6.016 mM; in the experiment on Sprague-Dawley rats (dose 30 nmol/kg, time 7 days) it was 5.76 mM. In addition, the Average blood glucose with Sprague-Dawley rats (dose 30 nmol/kg, time 8 days) turned out to be 5.794 mM. Moreover, the “Lipogenesis in rat adipocytes [Potency (%)] Mean Value” in the experiment with isolated rat adipocytes came to 2.21%. Further, the “Insulin receptor affinity [IC50 relative to HI (%)] Mean Value” at insulin receptor A was found to be 3.34%.

With “A14E, A21Q, A22(G)18, A40K^, B25H, B29R, desB30 human insulin/(227A, 234A, 235K hIgG4-Fc(228-447))4-[bis[2-[(2-acetyl)amino]ethyl]amino]-4-oxo-butanoyl Conjugate [Example 5.21]”, the Average blood glucose was 5.254 mM in the experiment with Sprague-Dawley rats (dose 300 nmol/kg, time 0 days); 5.972 mM with Sprague-Dawley rats (dose 300 nmol/kg, time 0.006944 days); 4.224 mM with Sprague-Dawley rats (dose 300 nmol/kg, time 0.041667 days); 3.238 mM with Sprague-Dawley rats (dose 300 nmol/kg, time 0.125 days); 2.842 mM with Sprague-Dawley rats (dose 300 nmol/kg, time 0.208333 days); 3.212 mM in the experiment with Sprague-Dawley rats (dose 300 nmol/kg, time 0.291667 days). Moreover, the Average blood glucose in the experiment with Sprague-Dawley rats (dose 300 nmol/kg, time 0.3336 days) came to 3.494 mM; with Sprague-Dawley rats (dose 300 nmol/kg, time 1 day), 2.58 mM; with Sprague-Dawley rats (dose 300 nmol/kg, time 2 days), 2.118 mM; in the experiment with Sprague-Dawley rats (dose 300 nmol/kg, time 3 days) it was 2.074 mM; in the experiment with Sprague-Dawley rats (dose 300 nmol/kg, time 4 days), 2.37 mM; in the experiment with Sprague-Dawley rats (dose 300 nmol/kg, time 5 days), 2.478 mM. In addition, the Average blood glucose in the experiment on Sprague-Dawley rats (dose 300 nmol/kg, time 6 days) amounted to 4.534 mM; in the experiment with Sprague-Dawley rats (dose 300 nmol/kg, time 7 days), 5.588 mM; in the experiment on Sprague-Dawley rats (dose 300 nmol/kg, time 8 days) it was 6.552 mM; in the experiment with Sprague-Dawley rats (dose 300 nmol/kg, time 9 days), 5.644 mM; in the experiment with Sprague-Dawley rats (dose 300 nmol/kg, time 10 days), 5.788 mM. In addition, the “Lipogenesis in rat adipocytes [Potency (%)] Mean Value” in the experiment with isolated rat adipocytes is on record as 0.95%. The “Insulin receptor affinity [IC50 relative to HI (%)] Mean Value” on insulin receptor A is on record as 2.10%.

In the case of “A14E, A21G, A22(GQAPGQAPGQEP)6-GQAP, A98K^, A99P, B3Q, B25H, B29R, desB30 human insulin/(227A, 234A, 235K, 297E, 315Q, 384Q, des447 hIgG4-Fc(228-447))4-[bis[2-[(2-acetyl)amino]ethyl]carbamoylamino]butanoyl Conjugate [Example 5.24]”, the Average blood glucose with Sprague-Dawley rats (dose 30 nmol/kg, time 0 days) is 5.604 mM; in the experiment with Sprague-Dawley rats (setting [1]), 5.98 mM; with Sprague-Dawley rats (setting [2]) it was 5.172 mM; in the experiment on Sprague-Dawley rats (setting [3]), 4.164 mM; with Sprague-Dawley rats (dose 30 nmol/kg, time 1 day), 2.924 mM; in the experiment on Sprague-Dawley rats (dose 30 nmol/kg, time 2 days), 3.128 mM. Besides, the Average blood glucose was found to be 3.352 mM in the experiment with Sprague-Dawley rats (dose 30 nmol/kg, time 3 days); 6.272 mM in the experiment with Sprague-Dawley rats (dose 30 nmol/kg, time 4 days); 5.788 mM with Sprague-Dawley rats (dose 30 nmol/kg, time 5 days); 5.824 mM in the experiment with Sprague-Dawley rats (dose 30 nmol/kg, time 6 days); 6.092 mM with Sprague-Dawley rats (dose 30 nmol/kg, time 7 days); 6.016 mM in the experiment on Sprague-Dawley rats (dose 30 nmol/kg, time 8 days). In addition, the Average blood glucose in the experiment on Sprague-Dawley rats (dose 30 nmol/kg, time 9 days) came to 5.872 mM; in the experiment with Sprague-Dawley rats (dose 30 nmol/kg, time 10 days), 6.072 mM. Besides, in the experiment with isolated rat adipocytes, the “Lipogenesis in rat adipocytes [Potency (%)] Mean Value” turned out to be 3.83%. For the same substance, the “Insulin receptor affinity [IC50 relative to HI (%)] Mean Value” on insulin receptor A came to 4.60%.

In the case of “A14E, A21G, A22(GQEP)6, A46K^, A47P, B25H, B29R, desB30 human insulin/(227A, 234A, 235K hIgG4-Fc(228-447))4-[bis[2-[(2-acetyl)amino]ethyl]amino]-4-oxo-butanoyl Conjugate [Example 5.7]”, the Average blood glucose in the experiment with Sprague-Dawley rats (dose 30 nmol/kg, time 0 days) is on record as 5.918 mM; with Sprague-Dawley rats (setting [1]), 5.682 mM; with Sprague-Dawley rats (setting [2]) it was 4.502 mM; in the experiment on Sprague-Dawley rats (setting [4]) it was 3.974 mM; with Sprague-Dawley rats (setting [3]) it was 3.428 mM; with Sprague-Dawley rats (dose 30 nmol/kg, time 1 day), 2.758 mM. Besides, the Average blood glucose was found to be 2.15 mM in the experiment with Sprague-Dawley rats (dose 30 nmol/kg, time 2 days); 2.3 mM with Sprague-Dawley rats (dose 30 nmol/kg, time 3 days); 2.81 mM with Sprague-Dawley rats (dose 30 nmol/kg, time 4 days); 4.404 mM in the experiment on Sprague-Dawley rats (dose 30 nmol/kg, time 5 days); 6.702 mM in the experiment with Sprague-Dawley rats (dose 30 nmol/kg, time 6 days); 6.518 mM with Sprague-Dawley rats (dose 30 nmol/kg, time 7 days). The substance further returned an Average blood glucose in the experiment with Sprague-Dawley rats (dose 30 nmol/kg, time 8 days) of 6.33 mM. For the same substance, the “Lipogenesis in rat adipocytes [Potency (%)] Mean Value” in the experiment with isolated rat adipocytes came out at 1.88%. Moreover, the “Insulin receptor affinity [IC50 relative to HI (%)] Mean Value” on insulin receptor A stood at 2.43%.

Values taken from patent US11471537B2, “Oligomer extended insulin-Fc conjugates” (Novo Nordisk A/S, priority 2017, dated 2022).
